The text below walks through data of PubChem BioAssay (NCI).

Test systems include ACHN renal; BT-549 breast; HCT-15 colon; HL-60(TB) leukemia; NCI-H226 lung; NCI-H522 lung; OVCAR-5 ovarian; SK-MEL-28 melanoma; SN12C renal; SR leukemia.
Common to all, as to test: NCI-60 cell line screen, 48 h

Values joined by “and” are separate entries in the source; they are usually repeats but may differ in a detail not shown here. Identical values can stand only once.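 A five-concentration, 48-hour dose response in 96-well plates underlies each endpoint, interpolated linearly between surrounding concentrations. GI50 is the concentration that inhibits growth by half. At the TGI there is no net growth.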

As to `CC(C)[C@H]1C(=O)N[C@@H](CCCN=C(N)N)C(=O)NCC(=O)N[C@@H](CC(=O)O)C(=O)N[C@H](Cc2ccccc2)C(=O)N1C`, the GI50 was greater than 100 µM with ACHN renal; 1.6 µM in the assay with BT-549 breast; 3.09 µM with HCT-15 colon; greater than 100 µM in the assay on HL-60(TB) leukemia; 9.21 µM with NCI-H226 lung; 2.32 µM in the assay with NCI-H522 lung. The GI50 was 1.34 µM in the assay with OVCAR-5 ovarian, 31.6 µM in the assay on SK-MEL-28 melanoma, 2.33 µM with SN12C renal and greater than 100 µM in the assay on SR leukemia. For the same molecule, the TGI in the assay with ACHN renal was greater than 100 µM; with BT-549 breast it was 3.13 µM; in the assay with HCT-15 colon, greater than 74.8 µM; with HL-60(TB) leukemia it was greater than 100 µM; with NCI-H226 lung it was greater than 100 µM; with NCI-H522 lung it was 5.7 µM. For the same molecule, the TGI with OVCAR-5 ovarian is greater than 100 µM; in the assay on SK-MEL-28 melanoma, greater than 100 µM; in the assay with SN12C renal, greater than 25.3 µM; with SR leukemia, greater than 100 µM.

Take `CCCCCCN(CCCCCC)CC(O)c1ccc2c3c(cccc13)CC2` (configuration not stated): the GI50 in the assay on ACHN renal was 10 µM; in the assay on BT-549 breast, 13.5 µM; in the assay on HCT-15 colon, 6.63 µM; in the assay with HL-60(TB) leukemia, 2.16 µM; in the assay with NCI-H226 lung, 8.06 µM; in the assay with NCI-H522 lung, 3.14 µM. Further, the GI50 is 10.8 µM in the assay with OVCAR-5 ovarian, 11.2 µM in the assay on SK-MEL-28 melanoma, 7.04 µM with SN12C renal and 3.32 µM in the assay with SR leukemia. In addition, the TGI with ACHN renal turned out to be 23.5 µM; in the assay on BT-549 breast, 28.1 µM; in the assay with HCT-15 colon, 25.1 µM; in the assay on HL-60(TB) leukemia, 6.16 µM; in the assay with NCI-H226 lung, 22.9 µM; in the assay on NCI-H522 lung, 13.2 µM. Further, the TGI in the assay on OVCAR-5 ovarian turned out to be 23.9 µM; with SK-MEL-28 melanoma, 24.9 µM; with SN12C renal, 22 µM; in the assay on SR leukemia, 13.8 µM.

In the case of `C/C(=N\NC(N)=S)c1nc2ccc(Cl)cc2[nH]1`, the GI50 with ACHN renal is 0.848 µM; with BT-549 breast, 3.57 µM; in the assay on HCT-15 colon, 0.857 µM; in the assay on HL-60(TB) leukemia, 1.55 µM; in the assay with NCI-H226 lung, 2.48 µM; in the assay with NCI-H522 lung, 1.24 µM. Moreover, the GI50 was 5.71 µM with OVCAR-5 ovarian, 5.7 µM in the assay on SK-MEL-28 melanoma, 4.72 µM in the assay with SN12C renal and 1.29 µM with SR leukemia. Moreover, the TGI in the assay with ACHN renal amounted to 7.83 µM; with BT-549 breast it was 14.3 µM; in the assay with HCT-15 colon it was 12.5 µM; in the assay on HL-60(TB) leukemia, 19.9 µM; in the assay with NCI-H226 lung, 10.1 µM; in the assay with NCI-H522 lung it was 7.9 µM. Moreover, the TGI is 18.1 µM with OVCAR-5 ovarian, 35.9 µM in the assay with SK-MEL-28 melanoma, greater than 50 µM in the assay on SN12C renal and 15.9 µM in the assay with SR leukemia.

For the molecule `CCN(CC)CCNc1n[n+]([O-])c2ccccc2[n+]1[O-]`, the TGI with ACHN renal was 18.4 µM and 21.1 µM; in the assay with BT-549 breast, 34.2 µM and 74.1 µM; with HCT-15 colon, 26.1 µM and 25 µM; with HL-60(TB) leukemia, 7.61 µM and 8.95 µM; in the assay on NCI-H226 lung, 23.7 µM and 29.9 µM; with NCI-H522 lung it was 17.3 µM and 22.9 µM. The TGI in the assay with OVCAR-5 ovarian was 38.6 µM and 35.8 µM; in the assay with SK-MEL-28 melanoma it was greater than 100 µM; with SN12C renal, 19.1 µM and 18.9 µM; with SR leukemia it was 6.87 µM and 28.7 µM. Besides, the GI50 in the assay with NCI-H522 lung was 3.85 µM and 7.95 µM; with SR leukemia it was 2.92 µM and 6.7 µM.
